Laboratory results from ChEMBL document CHEMBL4371038, “Synthesis and biological evaluation of novel 1-substituted 3-(3-phenoxyprop-1-yn-1-yl)-1H-pyrazolo[3,4-d]pyrimidin-4-amines as potent Bruton's tyrosine kinase (BTK) inhibitors” (Bioorg Med Chem Lett, 2019).
Each block holds one molecule with its values, some of them ahead of it.

Key:
DOHH-2 = experiment: Antiproliferative activity against human DOHH2 cells after 72 hrs by CellTiter-Glo luminescent cell viability assay; assay type: functional, cell-based; settings: DOHH-2, 72 h
[1] = Antiproliferative activity against human Mino cells after 72 hrs by CellTiter-Glo luminescent cell viability assay; assay type: functional, cell-based
SU-DHL-6 = experiment: Antiproliferative activity against human SU-DHL6 cells after 72 hrs by CellTiter-Glo luminescent cell viability assay; assay type: functional, cell-based; settings: SU-DHL-6, 72 h
[2] = Antiproliferative activity against human WSU-DLCL2 cells after 72 hrs by CellTiter-Glo luminescent cell viability assay; assay type: functional, cell-based; settings: WSUDLCL2, 72 h
PBMC = experiment: Cytotoxicity against human PBMC after 72 hrs by CellTiter-Glo luminescent cell viability assay; assay type: cell-based
[3] = molecular target: T1, Tyrosine-protein kinase BTK (Homo sapiens, UniProt Q06187); experiment: Inhibition of recombinant full-length human N-terminal GST-fused BTK (2 to 659 residues) expressed in baculovirus expression system at 1 uM using biotin-labelled peptide as substrate measured after 50 mins by TR-FRET assay relative to control
T1 sequence (Q06187 whole entry, the tested form may be a part): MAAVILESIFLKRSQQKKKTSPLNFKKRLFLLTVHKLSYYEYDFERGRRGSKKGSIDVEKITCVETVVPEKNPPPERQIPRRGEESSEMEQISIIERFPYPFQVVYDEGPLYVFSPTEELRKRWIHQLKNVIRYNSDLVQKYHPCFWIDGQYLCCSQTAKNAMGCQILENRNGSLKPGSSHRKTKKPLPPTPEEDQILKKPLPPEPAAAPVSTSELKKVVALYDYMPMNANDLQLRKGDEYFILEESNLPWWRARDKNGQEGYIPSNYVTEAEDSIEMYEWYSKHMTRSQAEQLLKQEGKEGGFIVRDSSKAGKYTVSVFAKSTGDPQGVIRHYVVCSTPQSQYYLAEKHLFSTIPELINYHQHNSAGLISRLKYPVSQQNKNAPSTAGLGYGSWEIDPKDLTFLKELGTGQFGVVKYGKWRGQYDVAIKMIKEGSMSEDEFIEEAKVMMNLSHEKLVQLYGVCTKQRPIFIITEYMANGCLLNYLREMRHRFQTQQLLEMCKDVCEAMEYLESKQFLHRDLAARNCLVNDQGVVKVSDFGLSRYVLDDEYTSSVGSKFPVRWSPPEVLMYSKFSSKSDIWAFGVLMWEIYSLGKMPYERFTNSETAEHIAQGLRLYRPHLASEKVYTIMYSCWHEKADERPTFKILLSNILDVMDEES

[4] = molecular target: T1, Tyrosine-protein kinase BTK; experiment: Inhibition of recombinant full-length human N-terminal GST-fused BTK (2 to 659 residues) expressed in baculovirus expression system using biotin-labelled peptide as substrate measured after 50 mins by TR-FRET assay
Ramos = experiment: Antiproliferative activity against human Ramos cells after 48 hrs by CCK8 assay; assay type: functional, cell-based
Raji = experiment: Antiproliferative activity against human Raji cells after 48 hrs by CCK8 assay; assay type: functional, cell-based
[5] = Cytotoxicity against human PBMC assessed as inhibition of cell proliferation at 30 uM after 72 hrs by CellTiter-Glo luminescent cell viability assay relative to control; assay type: cell-based; settings: PBMC (peripheral blood mononuclear cells)

IC50 (SU-DHL-6): 1.63 µM
SMILES: C=CC(=O)N1CCC[C@@H](n2nc(C#CCOc3ccccc3)c3c(N)ncnc32)C1
IC50 (DOHH-2): 0.0181 µM | IC50 [1]: 3.73 µM | IC50 [2]: 0.395 µM | IC50 (PBMC): > 30 µM

inhibition [3]: 92.2% | IC50 [4]: 0.0132 µM
SMILES: Nc1ncnc2c1c(C#CCOc1ccccc1)nn2[C@@H]1CCCN(C(=O)/C=C/CBr)C1

inhibition [3]: 73.8%
SMILES: C=C(F)C(=O)N1CCC[C@@H](n2nc(C#CCOc3ccccc3)c3c(N)ncnc32)C1

inhibition [3]: 104% | IC50 [4]: 0.0042 µM | IC50 (Ramos): > 40 µM | IC50 (Raji): > 40 µM
SMILES: C=CS(=O)(=O)N1CCC[C@@H](n2nc(C#CCOc3ccccc3)c3c(N)ncnc32)C1

inhibition [3]: 96.1% | IC50 [4]: 0.0188 µM
SMILES: C=CC(=O)N1CC[C@@H](n2nc(C#CCOc3ccccc3)c3c(N)ncnc32)C1

inhibition [3]: 102% | IC50 [4]: 0.0111 µM | IC50 (Ramos): 9.94 µM | IC50 (Raji): 2.37 µM | IC50 (SU-DHL-6): 0.0266 µM
SMILES: C#CC(=O)N1CCC[C@@H](n2nc(C#CCOc3ccccc3)c3c(N)ncnc32)C1
IC50 (DOHH-2): 0.0128 µM | IC50 [1]: 0.0679 µM | IC50 [2]: 0.0141 µM | IC50 (PBMC): 4.12 µM

inhibition [3]: 99.7% | IC50 [4]: 0.0283 µM
SMILES: CC#CC(=O)N1CCC[C@@H](n2nc(C#CCOc3ccccc3)c3c(N)ncnc32)C1

inhibition [3]: 98.5% | IC50 [4]: 0.0078 µM | IC50 (Ramos): 25.8 µM | IC50 (Raji): 17.7 µM
SMILES: C/C=C(\C#N)C(=O)N1CCC[C@@H](n2nc(C#CCOc3ccccc3)c3c(N)ncnc32)C1

The next lines start with the molecule.

SMILES: CC(C)/C=C(\C#N)C(=O)N1CCC[C@@H](n2nc(C#CCOc3ccccc3)c3c(N)ncnc32)C1
inhibition [3]: 99.6% | IC50 [4]: 0.0097 µM | IC50 (Ramos): > 40 µM | IC50 (Raji): > 40 µM

SMILES: Nc1ncnc2c1c(C#CCOc1ccccc1)nn2[C@@H]1CCCN(C(=O)/C=C/CN2CCOCC2)C1
inhibition [3]: 86.1%

SMILES: C=CC(=O)N1CCC[C@@H](n2nc(-c3ccc(Oc4ccccc4)cc3)c3c(N)ncnc32)C1 [IBRUTINIB]
IC50 (DOHH-2): 0.0334 µM | IC50 [1]: 3.15 µM | IC50 (SU-DHL-6): 0.874 µM | IC50 [2]: 0.487 µM | inhibition at 72 h, 30 µM [5]: 69%

SMILES: N#C/C(=C\C1CC1)C(=O)N1CCC[C@@H](n2nc(C#CCOc3ccccc3)c3c(N)ncnc32)C1
inhibition [3]: 97.1% | IC50 [4]: 0.0111 µM | IC50 (Ramos): 9.06 µM | IC50 (Raji): 2.09 µM | IC50 (DOHH-2): > 10 µM | IC50 [1]: 8.85 µM | IC50 (SU-DHL-6): > 10 µM | IC50 [2]: > 10 µM | IC50 (PBMC): > 30 µM

SMILES: C=CC(=O)NCCn1nc(C#CCOc2ccccc2)c2c(N)ncnc21
inhibition [3]: 27.1%

SMILES: C=CC(=O)N[C@H]1CC[C@@H](n2nc(C#CCOc3ccccc3)c3c(N)ncnc32)CC1
inhibition [3]: 101% | IC50 [4]: 0.0148 µM

SMILES: C=CC(=O)N1CCC[C@H]1Cn1nc(C#CCOc2ccccc2)c2c(N)ncnc21
inhibition [3]: 42.9%

SMILES: C=CC(=O)N(C)CCn1nc(C#CCOc2ccccc2)c2c(N)ncnc21
inhibition [3]: 48.5%

SMILES: Nc1ncnc2c1c(C#CCOc1ccccc1)nn2[C@@H]1CCCN(C(=O)/C=C/Cn2cncn2)C1
inhibition [3]: 76.3%
